The results in this text go back to the NIST ThermoML archive (doi:10.1021/je500271z).

The nature of the series: osmotic coefficient (dimensionless); mn = molality of the nth substance listed, in mol/kg. The conditions noted are these: 298.15 K, Liquid, vapor pressure osmometry.

± gives the expanded uncertainty stated by the source.

In the case of `[Cl-].[Na+]` [sodium chloride] + O, the osmotic coefficient was 0.95 ± 0.02 (m1 = 0.2485), 0.922 ± 0.02 (m1 = 0.5058) and 0.976 ± 0.02 (m1 = 1.993).
